Where a SMILES comes first, the peptide text is derived from it.
B1: BMP-7: bone morphogenetic protein-7, known as an osteogenesis promoter; comparator (protein, UniProt P18075 293-431, looked up)
Bone morphogenetic protein 7: STGSKQRSQNRSKTPKNQEALRMANVAENSSSDQRQACKKHELYVSFRDLGWQDWIIAPEGYAAYYCEGECAFPLNSYMNATNHAIVQTLVHFINPETVPKPCCAPTQLNAISVLYFDDSSNVILKKYRNMVVRACGCH

Key:
cells = experiment: MTT assay for cytotoxicity; type: cell-based; settings: within a range of used concentrations
surface marker CD44 = experiment: Fluorescence microscopy of surface marker CD44; type: cell-based, mouse; settings: at the same concentrations
Source text: The effects of BFP 1 and BFP 2 on the expression of the surface marker CD44 were observed under a fluorescence microscope and the results are given in FIGS. 10a and 10b.
During differentiation, the cells were stained with DAPI, a fluorescent stain that easily binds to the DNA of living cells, and with a PE(phycoerythrin)-conjugated-CD44 antibody.

| Molecule | cytotoxicity (MTT assay) (cells) | CD44 staining intensity compared with BFP 1 or BFP 2 (surface marker CD44) |
| --- | --- | --- |
| CC(C)[C@H](NC(=O)[C@H](C)NC(=O)[C@H](CCCCN)NC(=O)[C@H](Cc1ccc(O)cc1)NC(=O)[C@@H]1CCCN1C(=O)[C@H](Cc1ccc(O)cc1)NC(=O)[C@H](CO)NC(=O)[C@H](Cc1ccccc1)NC(=O)CNC(=O)[C@H](CCC(N)=O)NC(=O)CN)C(=O)N[C@@H](Cc1ccccc1)C(=O)N[C@@H](CO)C(=O)N[C@H](C(=O)N[C@@H](CCC(N)=O)C(=O)O)[C@@H](C)O [BFP 1, Gly-Gln-Gly-Phe-Ser-Tyr-Pro-Tyr-Lys-Ala-Val-Phe-Ser-Thr-Gln] (H-GQGFSYPYKAVFSTQ-OH) | neither BFP 1 nor BFP 2 are toxic to cells | – |
| CC(C)[C@H](N)C(=O)N[C@@H](CCC(=O)O)C(=O)N[C@@H](Cc1c[nH]cn1)C(=O)N[C@@H](CC(=O)O)C(=O)N[C@@H](CCCCN)C(=O)N[C@@H](CCC(=O)O)C(=O)N[C@@H](Cc1ccccc1)C(=O)N[C@@H](Cc1ccccc1)C(=O)N[C@@H](Cc1c[nH]cn1)C(=O)N1CCC[C@H]1C(=O)N[C@@H](CCCNC(=N)N)C(=O)N[C@@H](Cc1ccc(O)cc1)C(=O)N[C@@H](Cc1c[nH]cn1)C(=O)N[C@@H](Cc1c[nH]cn1)C(=O)N[C@@H](CCCNC(=N)N)C(=O)O [BFP 2, Val-Glu-His-Asp-Lys-Glu-Phe-Phe-His-Pro-Arg-Tyr-His-His-Arg] (H-VEHDKEFFHPRYHHR-OH) | neither BFP 1 nor BFP 2 are toxic to cells | – |
| B1 | – | less intense staining |

— patent US8066980B2, “Osteogenic synthetic peptides, pharmaceutical compositions comprising the same, and medium containing the same” (Industry Foundation of Chonnam National University, priority 2008, dated 2011)
